Tested on: human myometreal fragments
Assay: Inhibition in vitro of the uterine contractility of myometreal fibers from uteruses of women who are not pregnant
Format: cell-based
Conditions: for Inhibition as % (Mean): spontaneous contractions
From the text: Inhibition In Vitro of the Uterine Contractility of Myometreal Fibers from Uteruses of Women Who are Not Pregnant
The contractile activity of human myometreal fragments was studied in vitro.
After a lag time of approximately two hours, allowing the establishment of spontaneous contractions, the inhibition of the contractions, produced by addition to the medium of 17α-hydroxyprogesterone and of its nitro derivative, 17α-hydroxypregn-4-ene-3,20-dione (4′-nitro-oxymethyl)benzoate, identified in this table under the name 17α-hydroxypregn-4-ene-3,20-dione (4′-nitro-oxymethyl)benzoate (example 4), could be measured.
This experiment makes it possible to evaluate the short-term effect of this compound.

Compound	Activity on contractions compared with hydroxyprogesterone (on average, action much more constant, less variable)	Inhibition as % (Mean) (concentration 2 × 10^−6 M)	Inhibition as % (Mean) (concentration 2 × 10^−7 M)
CC(=O)[C@@]1(OC(=O)c2ccc(CO[N+](=O)[O-])cc2)CC[C@H]2[C@@H]3CCC4=CC(=O)CC[C@]4(C)[C@H]3CC[C@@]21C [17α-hydroxypregn-4-ene-3,20-dione (4′-nitrooxymethyl)benzoate]	the same activity as hydroxyprogesterone	69%	37%
CC(=O)[C@@]1(O)CC[C@H]2[C@@H]3CCC4=CC(=O)CC[C@]4(C)[C@H]3CC[C@@]21C [17α-hydroxyprogesterone, reference compound]		66%	45%
